Measurements published in patent US8680113B2, “BMI-1 protein expression modulators” (PTC Therapeutics, Inc., priority 2008, dated 2014).
One block for each compound: values may come before it.

How the values were obtained:
Bmi-1 [1] = assay: Sandwich ELISA Assay (Bmi-1 ELISA in HT-1080 cells); type: cell-based, human
In short: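 HT-1080 cells (8000/well) were treated with compounds in 0.5% final DMSO for 40-48 h at 37°C and then lysed. Bmi-1 in lysates was measured by sandwich ELISA: overnight capture at 4°C on mouse monoclonal, rabbit anti-Bmi-1 detection, HRP anti-rabbit, TMB. OD450 was read with an OD570 reference against a recombinant GST-Bmi-1 standard curve (0-8000 pg/mL).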

Bmi-1 [2] = assay: Cell Model Assay: Bmi-1 expression in HT1080; type: cell-based, human; conditions: HT1080 (fibrosarcoma)
Method: (§1) Using assay conditions known to those skilled in the art, the ability of the compounds described herein to reduce Bmi-1 expression in HT1080 (fibrosarcoma), U87-MG (glioblastoma), T98G (glioblastoma), K562 (chronic myelogenous leukemia) and KG1 (acute myelogenous leukemia) cell lines was tested (at test compound concentrations calculated from the ELISA assay data shown in Example 1) compared to puromycin as a control to provide the EC50 values shown in Table 2. The term “ND” means that data was not determined.

Bmi-1 [3] = assay: Cell Model Assay: Bmi-1 expression in U87-MG; type: cell-based; conditions: U87-MG (glioblastoma)
Method: as §1

Bmi-1 [4] = assay: Cell Model Assay: Bmi-1 expression in T98G; type: cell-based; conditions: T98G (glioblastoma)
Method: as §1

Bmi-1 [5] = assay: Cell Model Assay: Bmi-1 expression in K562; type: cell-based; conditions: K562 (chronic myelogenous leukemia)
Method: as §1

Bmi-1 [6] = assay: Cell Model Assay: Bmi-1 expression in KG1; type: cell-based; conditions: KG1 (acute myelogenous leukemia)
Method: as §1

MCL-Jeko = assay: Mantle Cell Lymphoma Assay: cytotoxicity, Jeko; type: cell-based; conditions: MCL-Jeko, 72 hrs
From the text: (§2) MCL cell lines Jeko, Mino, and Rec-1 were provided by American Type Culture Collection: The Bioresource Center (Manassas, Va.). […] Carlsbad, Calif.) in T-75 culture flasks. Cell concentration was maintained between 2 to 3×10^5 cells/mL. Early passage cells (passages 2-4) were used for all experiments. Ficoll-Histopaque density sedimentation (Sigma Aldrich) was used for separation of debris and purification of cell lines prior to experiments. […] The cytotoxic effect of test compounds on the MCL-cell lines was assessed by measuring cell concentration and cell viability using a Beckman Coulter Vi-Cell Counter. Controls and treated cells were harvested and counted at day 3.

MCL-Mino = assay: Mantle Cell Lymphoma Assay: cytotoxicity, Mino; type: cell-based; conditions: MCL-Mino, 72 hrs
From the text: as §2

MCL-Rec1 = assay: Mantle Cell Lymphoma Assay: cytotoxicity, Rec-1; type: cell-based; conditions: 72 hrs
From the text: as §2

MM cell line = assay: Multiple Myeloma Assay; type: cell-based; conditions: 72 hrs in culture

IC50 (Bmi-1 [1]): < 500 nM | EC50 (Bmi-1 [2]): 5 nM | EC50 (Bmi-1 [3]): < 4 nM | EC50 (Bmi-1 [4]): < 4 nM
SMILES: Cc1nc2ncccn2c1-c1csc(Nc2ccc(I)cc2)n1 [Cpd 39, N-(4-iodophenyl)-4-(2-methylimidazo[1,2-a]pyrimidin-3-yl)-1,3-thiazol-2-amine]

SMILES: COc1ccc(C[C@H](N)C(=O)N[C@H]2[C@@H](O)[C@H](n3cnc4c(N(C)C)ncnc43)O[C@@H]2CO)cc1 [Control, puromycin, reference compound]
EC50 (Bmi-1 [2]): 450 nM | EC50 (Bmi-1 [3]): 420 nM | EC50 (Bmi-1 [4]): 230 nM | EC50 (Bmi-1 [5]): 490 nM | EC50 (Bmi-1 [6]): 1100 nM

IC50 (Bmi-1 [1]): < 500 nM | EC50 (Bmi-1 [2]): 310 nM | EC50 (Bmi-1 [5]): 76 nM | EC50 (Bmi-1 [6]): 120 nM
SMILES: COc1cc(Br)c(Nc2nc(-c3cnc4ccc(Cl)cn34)cs2)c(Br)c1 [Cpd 24, 4-(6-chloroimidazo[1,2-a]pyridine-3-yl)-N-(2,6-dibromo-4-methoxyphenyl)thiazol-2-amine]
Cell Concentration (×10^6) (MCL-Jeko; 0.004 μM): 1.95 ± 0.04 ×10^6 | Cell Concentration (×10^6) (MCL-Jeko; 0.037 μM): 1.94 ± 0.02 ×10^6 | Cell Concentration (×10^6) (MCL-Jeko; 0.11 μM): 1.92 ± 0.01 ×10^6 | Cell Concentration (×10^6) (MCL-Jeko; 0.33 μM): 1.80 ± 0.03 ×10^6 | Cell Concentration (×10^6) (MCL-Jeko; 1 μM): 0.76 ± 0.27 ×10^6 | Cell Concentration (×10^6) (MCL-Jeko; 3 μM): 0.14 ± 0.01 ×10^6 | Cell Concentration (×10^6) (MCL-Mino; 0.004 μM): 0.63 ± 0.01 ×10^6 | Cell Concentration (×10^6) (MCL-Mino; 0.037 μM): 0.63 ± 0.01 ×10^6 | Cell Concentration (×10^6) (MCL-Mino; 0.11 μM): 0.62 ± 0.01 ×10^6 | Cell Concentration (×10^6) (MCL-Mino; 0.33 μM): 0.55 ± 0.01 ×10^6 | Cell Concentration (×10^6) (MCL-Mino; 1 μM): 0.28 ± 0.02 ×10^6 | Cell Concentration (×10^6) (MCL-Mino; 3 μM): 0.05 ± 0.01 ×10^6 | Cell Concentration (×10^6) (MCL-Rec1; MCL-Rec1, 0.004 μM): 0.36 ± 0.02 ×10^6 | Cell Concentration (×10^6) (MCL-Rec1; MCL-Rec1, 0.037 μM): 0.34 ± 0.01 ×10^6 | Cell Concentration (×10^6) (MCL-Rec1; MCL-Rec1, 0.11 μM): 0.34 ± 0.01 ×10^6 | Cell Concentration (×10^6) (MCL-Rec1; MCL-Rec1, 0.33 μM): 0.31 ± 0.01 ×10^6 | Cell Concentration (×10^6) (MCL-Rec1; MCL-Rec1, 1 μM): 0.06 ± 0.01 ×10^6 | Cell Concentration (×10^6) (MCL-Rec1; MCL-Rec1, 3 μM): 0.01 ± 0.00 ×10^6 | Cell Concentration, MM cell line (MM cell line; dose 0.004 μM): 1.37 ± 0.03 ×10^6 | Cell Concentration, MM cell line (MM cell line; dose 0.037 μM): 1.38 ± 0.04 ×10^6 | Cell Concentration, MM cell line (MM cell line; dose 0.11 μM): 1.23 ± 0.01 ×10^6 | Cell Concentration, MM cell line (MM cell line; dose 0.33 μM): 0.59 ± 0.04 ×10^6 | Cell Concentration, MM cell line (MM cell line; dose 1 μM): 0.34 ± 0.14 ×10^6 | Cell Concentration, MM cell line (MM cell line; dose 3 μM): 0.17 ± 0.01 ×10^6
